Test results reported in patent US8299059B2, “Crystalline compound and a process for its preparation” (Eli Lilly and Company, priority 2009, dated 2012).

Columns and labels:
Format in all cases: physicochemical
[1] = Determination of particle size distribution by laser diffraction; conditions: for x10 / x90: cumulative volume distribution (undersized); for x50: median particle size
Description: Laser diffraction particle size analysis is employed to determine the x10, x50 and x90 values. The procedure uses Fraunhofer laser diffraction theory to calculate the particle size distribution. The analysis is performed with a Malvern Mastersizer 2000 equipped with a Hydro 2000S wet module. A filtered (0.22 μm) solution composed of 0.35% (v/v) sorbitan monooleate (SPAN® 80) in hexanes and saturated with semagacestat is used as the dispersant. The parameters used in the analysis are as follows: sample refractive index—1.555, sample absorption—0.1, dispersant refractive index—1.37, result calculation model—General purpose, normal sensitivity, sample measurement time—12 seconds, background measurement time—12 seconds, and stirrer/pump speed—2700 rpm. A dry sample is added to the Hydro 2000S wet module with sonication on at 100%, until the obscuration is between 10 and 20%. The sample is sonicated for 12 s and stirred for a total of 2 min (including sonication) prior to the analysis. Two separate assays are typically run; the average values are reported.

[2] = Determination of specific surface area (BET isotherm, nitrogen)
Description: Specific surface area is determined from BET isotherm measurements using nitrogen as the absorbed gas.

[3] = Determination of particle flowability (Schulze shear cell tester); conditions: flow factor coefficient, pre-consolidation pressure 2000 Pa
Description: Particle flowability is characterized using a Schulze shear cell tester with a pre-consolidation pressure of 2000 Pa. The powder sample is contained in an annular shear cell. A vertically acting force is applied to the lid of the flow cell allowing an adjustable normal stress to be applied. The shear cell is slowly rotated and the torque necessary to prevent the cover from rotating is recorded. The measured shear stress that is recorded is the shear stress required for the powder to move or flow against itself. From a plot of the shear stress versus normal force, the flowability or FFC is determined

## CC(C)[C@H](O)C(=O)N[C@@H](C)C(=O)N[C@@H]1C(=O)N(C)CCc2ccccc21 [Method 2, Crystalline (2S)-2-hydroxy-3-methyl-N-[(1S)-1-methyl-2-oxo-2-[[(1S)-2,3,4,5-tetrahydro-3-methyl-2-oxo-1H-3-benzazepin-1-yl]amino]ethyl]-butanamide anhydrate Form II]
[1]
  x10: 3.5 μm
  x90: 54 μm
  x50: 17 μm
[2]
  SSA: 1.1 m^2/g
[3]
  FFC: 2.0

## CC(C)[C@H](O)C(=O)N[C@@H](C)C(=O)N[C@@H]1C(=O)N(C)CCc2ccccc21 [Example 1, Crystalline (2S)-2-hydroxy-3-methyl-N-[(1S)-1-methyl-2-oxo-2-[[(1S)-2,3,4,5-tetrahydro-3-methyl-2-oxo-1H-3-benzazepin-1-yl]amino]ethyl]-butanamide anhydrate Form II]
[1]
  x10: 14 μm
  x90: 128 μm
  x50: 59 μm
[2]
  SSA: 0.4 m^2/g
[3]
  FFC: 3.8
